Experimental data as given in patent US20230331785A1 (priority 2018, published 2023).

Experiments:
Settings in all cases: human
[1] = tested on: HER2 positive NCI/ADR-RES cells (NCI/ADR-RES-HER2+)
[2] = tested on: HER2 positive JIMT-1 cells
HCC1569 cells = tested on: HCC1569 cells
[3] = tested on: HER2 positive HCC1954 cells
NCI-N87 cells = tested on: NCI-N87 cells

Question: Which “In Vitro Cytotoxicity CD50, NCI/ADR-RES-HER2+” value [1] does the source give for CS(=O)(=O)CCNCc1ccc(-c2ccc3ncnc(Nc4ccc(OCc5cccc(F)c5)c(Cl)c4)c3c2)o1 [lapatinib] here?
Answer: Its value is 2,704 nM.

Question: And the “In Vitro Cytotoxicity CD50, JIMT-1” value [2]?
Answer: The value was 5,650 nM.

Question: And the “In Vitro Cytotoxicity CD50, HCC1569” value (HCC1569 cells)?
Answer: The value was 885 nM.

Question: And the “In Vitro Cytotoxicity CD50, HCC1954” value [3]?
Answer: The value was 786 nM.

Question: What about the “In Vitro Cytotoxicity CD50, NCI-N87” value (NCI-N87 cells) of the same molecule?
Answer: The value was 112 nM.
